One experiment deals with T1, Kir1.1 (ROMK1) (Homo sapiens, UniProt P48048).
T1 construct: expressed in transfected cells
T1 sequence (P48048 1-391): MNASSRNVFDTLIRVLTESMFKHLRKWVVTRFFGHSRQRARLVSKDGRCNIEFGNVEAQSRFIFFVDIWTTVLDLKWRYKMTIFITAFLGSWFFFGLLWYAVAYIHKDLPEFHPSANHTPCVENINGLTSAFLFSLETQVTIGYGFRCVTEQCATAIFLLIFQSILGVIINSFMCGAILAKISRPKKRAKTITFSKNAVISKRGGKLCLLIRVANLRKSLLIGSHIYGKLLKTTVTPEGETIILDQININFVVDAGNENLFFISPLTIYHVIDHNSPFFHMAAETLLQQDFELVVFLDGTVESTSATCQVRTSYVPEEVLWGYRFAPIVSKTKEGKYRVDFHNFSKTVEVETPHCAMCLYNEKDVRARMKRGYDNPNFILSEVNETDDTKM
Description: Electrophysiology Assay (whole cell voltage clamp, IonWorks Quattro). The class given is cell-based. Particulars: Chinese hamster ovary cells stably expressing Kir1.1; fractional block at voltage step to 0 mV; 6 min compound incubation. Here is the method:
Blocking of Kir1.1 (ROMK1) currents was examined by whole cell voltage clamp (Hamill et. al. Pfluegers Archives 391:85-100 (1981) using the IonWorks Quattro automated electrophysiology platform (Molecular Devices, Sunnyvale, Calif.). Chinese hamster ovary cells stably expressing Kir1.1 channels were maintained in T-75 flasks in cell culture media in a humidified 10% CO2 incubator at 37° C. Prior to an experiment, Kir1.1 expression was induced by overnight incubation with 1 mM sodium butyrate. On the day of the experiment, cells were dissociated with 2.5 mL of Versene (Invitrogen 15040-066), a non-enzymatic cell dissociation reagent, for approximately 6 min at 37° C. and suspended in 10 mL of bath solution containing (in mM): 150 NaCl, 10 KCl, 2.7 CaCl2, 0.5 MgCl2, and 5 HEPES, at pH 7.4. After centrifugation, the cell pellet was resuspended in approximately 4.0 mL of bath solution and placed in the IonWorks instrument. The intracellular solution consisted of (in mM): 80 K gluconate, 40 KCl, 20 KF, 3.2 MgCl2, 3 EGTA, and 5 Hepes, at pH 7.4. Electrical access to the cytoplasm was achieved by perforation in 0.13 mg/mL amphotericin B for 4 min. Amphotericin B (Sigma A-4888) was prepared as a 40 mg/mL solution in DMSO.
Voltage protocols and current recordings were performed using the IonWorks HT software/hardware system. Currents were sampled at 1 kHz. There was no correction for liquid junction potentials. The test pulse, consisting of a 100 ms (millisecond) step to 0 mV (millivolts) from a holding potential of −70 mV, followed by a 100 ms voltage ramp from −70 mV to +70 mV, was applied before and after a 6 min compound incubation period. Test compounds were prepared by diluting DMSO stock solutions into the bath solution at 3× the final concentration and placed in the instrument in 96-well polypropylene plates. Current amplitudes were measured using the IonWorks software. To assess compound potency, the fractional block during the voltage step to 0 mV was calculated in Microsoft Excel (Microsoft, Redmond, Calif.), and dose-response curves were fitted with Igor Pro 4.0 (WaveMetrics, Lake Oswego, Oreg.). Although not required, a control compound is typically included to support that the assay is giving consistent results compared to previous measurements.

For a further experiment, the target named is T2, ROMK (Kir1.1) channel (Homo sapiens, UniProt P48048).
T2 sequence (P48048 1-391): T1 sequence (P48048 1-391)
Description: Thallium Flux Assay. The class given is cell-based. The protocol:
A Thallium Flux Assay was performed on the compounds of the Examples. This assay has been described previously; see, e.g., PCT Published Application WO 2013/062900.

SMILES strings stand for the structures.

In the case of `CC1=C(N2NCC3(CCN(C[C@H](O)c4ccc(-n5cnnn5)nc4)CC3)C2=O)COC1=O` [Example 2A, (R)-8-(2-(6-(1H-tetrazol-1-yl)pyridin-3-yl)-2-hydroxyethyl)-2-(4-methyl-5-oxo-2,5-dihydrofuran-3-yl)-2,3,8-triazaspiro[4.5]decan-1-one], the IC50 against Kir1.1 (ROMK1) came to 53 nM; against ROMK (Kir1.1) channel, 36.5 nM.

With `CC1=C(N2NCC3(CCN(C[C@@H](O)c4ccc(-n5cnnn5)nc4)CC3)C2=O)COC1=O` [Example 2B, (S)-8-(2-(6-(1H-tetrazol-1-yl)pyridin-3-yl)-2-hydroxyethyl)-2-(4-methyl-5-oxo-2,5-dihydrofuran-3-yl)-2,3,8-triazaspiro[4.5]decan-1-one], the IC50 on Kir1.1 (ROMK1) came to 33 nM; at ROMK (Kir1.1) channel it was 57.8 nM.

At ROMK (Kir1.1) channel, `CC1=C(N2N=CC3(CCN(CC(O)c4ccc(-n5cnnn5)nn4)CC3)C2=O)COC1=O` (single isomer, unassigned) [Example 4A, 8-(2-(6-(1H-tetrazol-1-yl)pyridazin-3-yl)-2-hydroxyethyl)-2-(4-methyl-5-oxo-2,5-dihydrofuran-3-yl)-2,3,8-triazaspiro[4.5]dec-3-en-1-one] had an IC50 of 267 nM. Take `CC1=C(N2N=CC3(CCN(C[C@H](O)c4ccc(-n5cnnn5)nc4)CC3)C2=O)COC1=O` [Example 3A, (R)-8-(2-(6-(1H-tetrazol-1-yl)pyridin-3-yl)-2-hydroxyethyl)-2-(4-methyl-5-oxo-2,5-dihydrofuran-3-yl)-2,3,8-triazaspiro[4.5]dec-3-en-1-one]: the IC50 against Kir1.1 (ROMK1) was 17 nM; against ROMK (Kir1.1) channel, 54.9 nM. `CC1=C(N2N=CC3(CCN(C[C@@H](O)c4ccc(-n5cnnn5)nc4)CC3)C2=O)COC1=O` [Example 3B, (S)-8-(2-(6-(1H-tetrazol-1-yl)pyridin-3-yl)-2-hydroxyethyl)-2-(4-methyl-5-oxo-2,5-dihydrofuran-3-yl)-2,3,8-triazaspiro[4.5]dec-3-en-1-one] had an IC50 at ROMK (Kir1.1) channel of 57.1 nM. For the compound `CC1=C(N2NCC3(CCN(C[C@H](O)c4ccc5c(c4C)COC5=O)CC3)C2=O)COC1=O` [Example 1, (R)-8-(2-hydroxy-2-(4-methyl-1-oxo-1,3-dihydroisobenzofuran-5-yl)ethyl)-2-(4-methyl-5-oxo-2,5-dihydrofuran-3-yl)-2,3,8-triazaspiro[4.5]decan-1-one], the concentration for half-maximal inhibition (IC50) against Kir1.1 (ROMK1) was 33 nM; at ROMK (Kir1.1) channel it was 68.4 nM. Compound `CC1=C(N2N=CC3(CCN(CCc4ccc(-n5cnnn5)nn4)CC3)C2=O)COC1=O` [Example 5, 8-(2-(6-(1H-tetrazol-1-yl)pyridazin-3-yl)ethyl)-2-(4-methyl-5-oxo-2,5-dihydrofuran-3-yl)-2,3,8-triazaspiro[4.5]dec-3-en-1-one] gave an IC50 on ROMK (Kir1.1) channel of 45.8 nM.

For the origin of these results see US9862720B2, “Inhibitors of the renal outer medullary potassium channel” (Merck Sharp & Dohme Corp., priority 2014, dated 2018).
